In brackets after ≈: the same amount, converted by molar mass. Blank lines part the entries; values can stand above or below the compound they belong to.
How the values were obtained:
Assay in all cases: ≥ marks a high value that may be exact or a test limit, other limits are often not marked, values filed in µg/mL are converted to µM
[1] = test system: Klebsiella pneumoniae ATCC 13883
[2] = test system: Enterococcus faecalis ATCC BAA-2316
[3] = test system: Enterococcus faecalis ATCC BAA-2365
[4] = test system: Escherichia coli ATCC 25922
[5] = test system: Staphylococcus aureus ATCC 43300
[6] = test system: Acinetobacter baumannii ATCC 19606
[7] = test system: Enterococcus faecalis ATCC 19433
[8] = test system: Escherichia coli ATCC BAA-2452
[9] = test system: Staphylococcus aureus ATCC 33591
[10] = test system: Pseudomonas aeruginosa ATCC 27853
[11] = test system: Pseudomonas aeruginosa ATCC BAA-2114
[12] = test system: Staphylococcus aureus ATCC 29213
[13] = test system: Staphylococcus aureus ATCC BAA-41
[14] = test system: Staphylococcus epidermidis ATCC 12228
[15] = test system: Candida parapsilosis CBS 604
[16] = test system: Saccharomyces cerevisiae SZMC 0644
Candida krusei CBS 573 = test system: Candida krusei CBS 573
[17] = test system: Candida albicans ATCC 10231
[18] = test system: Staphylococcus aureus ATCC 6538P
[19] = test system: Pseudomonas aeruginosa PAO1
[20] = test system: Staphylococcus aureus WKZ-2
[21] = test system: Enterococcus faecalis ATCC 29212
[22] = test system: Klebsiella pneumoniae ATCC 700603
[23] = test system: Bacillus subtilis subsp. spizizenii
[24] = test system: Bacillus subtilis ATCC 6051
Pseudomonas aeruginosa = test system: Pseudomonas aeruginosa
[25] = test system: Cryptococcus neoformans ATCC 208821
[26] = test system: Klebsiella pneumoniae ATCC BAA-2146
Klebsiella pneumoniae = test system: Klebsiella pneumoniae
Acinetobacter baumannii = test system: Acinetobacter baumannii
[27] = test system: Candida albicans ATCC 90028
[28] = test system: Aspergillus flavus KCTC 9471
Staphylococcus aureus = test system: Staphylococcus aureus
Fusarium verticillioides = test system: Fusarium verticillioides
Saccharomyces cerevisiae = test system: Saccharomyces cerevisiae
Proteus vulgaris = test system: Proteus vulgaris
Botrytis cinerea = test system: Botrytis cinerea
[29] = test system: Candida albicans KCTC 7270
[30] = test system: Escherichia coli O157:H7 ATCC 43895
Salmonella typhimurium = test system: Salmonella typhimurium
[31] = test system: Staphylococcus epidermidis
[32] = test system: Listeria monocytogenes KCTC 3710
Bacillus subtilis = test system: Bacillus subtilis
Trichosporon beigelii = test system: Trichosporon beigelii
[33] = test system: Aspergillus fumigatus KCTC 6145
Escherichia coli = test system: Escherichia coli

Structure (SMILES): CC[C@H](C)[C@H](NC(=O)[C@@H]1CSSC[C@H](NC(=O)[C@H](CCCCN)NC(=O)CN)C(=O)N[C@@H](CCC(=O)O)C(=O)N[C@@H](Cc2c[nH]c3ccccc23)C(=O)N[C@@H](CCC(N)=O)C(=O)NCC(=O)NCC(=O)N[C@@H](CCC(N)=O)C(=O)N[C@@H](CC(C)C)C(=O)N[C@@H](CC(N)=O)C(=O)N1)C(=O)N[C@@H](C)C(=O)N[C@H](C(=O)O)[C@@H](C)O [GKCEWQGGQLNCIAT]
MIC [15]: ≥ 62.2 µM
MIC [16]: ≥ 62.2 µM
MIC (Candida krusei CBS 573): ≥ 62.2 µM
MIC [17]: > 62.2 µM

Structure (SMILES): CC[C@H](C)[C@H](NC(=O)[C@H](CCCCN)NC(=O)[C@H](CO)NC(=O)[C@H](Cc1ccccc1)NC(=O)[C@H](CC(C)C)NC(=O)[C@H](CCCCN)NC(=O)[C@H](CCC(=O)O)NC(=O)[C@H](CC(C)C)NC(=O)[C@H](CCCN=C(N)N)NC(=O)[C@H](CCCCN)NC(=O)[C@H](CO)NC(=O)[C@@H](NC(=O)[C@H](CCCCN)NC(=O)[C@H](CCCCN)NC(=O)[C@H](C)N)C(C)C)C(=O)N[C@@H](CCC(N)=O)C(=O)N[C@@H](CC(N)=O)C(=O)N[C@@H](CC(=O)O)C(=O)N[C@@H](CCCCN)C(N)=O [AKKVSKRLEKLFSKIQNDK]
MIC [28]: ≥ 50 µM
MIC (Staphylococcus aureus): > 12.5 µM
MIC (Fusarium verticillioides): ≥ 50 µM
MIC (Saccharomyces cerevisiae): 25 µM (≈ 56.5 µg/mL)
MIC (Proteus vulgaris): 12.5 µM (≈ 28.2 µg/mL)
MIC (Botrytis cinerea): ≥ 50 µM
MIC [29]: 25 µM (≈ 56.5 µg/mL)
MIC [30]: 6.25 µM (≈ 14.1 µg/mL)
MIC (Pseudomonas aeruginosa): 12.5 µM (≈ 28.2 µg/mL)
MIC (Salmonella typhimurium): 12.5 µM (≈ 28.2 µg/mL)
MIC [31]: 12.5 µM (≈ 28.2 µg/mL)
MIC [32]: 12.5 µM (≈ 28.2 µg/mL)
MIC (Bacillus subtilis): 3.13 µM (≈ 7.07 µg/mL)
MIC (Trichosporon beigelii): 12.5 µM (≈ 28.2 µg/mL)
MIC [33]: ≥ 50 µM
MIC (Escherichia coli): 6.25 µM (≈ 14.1 µg/mL)

More lines, now with the values ahead:

MIC [1]: 2.5 µM (≈ 9.08 µg/mL)
MIC [2]: 5 µM (≈ 18.2 µg/mL)
MIC [3]: 5 µM (≈ 18.2 µg/mL)
MIC [4]: 10 µM (≈ 36.3 µg/mL)
MIC [5]: 10 µM (≈ 36.3 µg/mL)
MIC [6]: 10 µM (≈ 36.3 µg/mL)
MIC [7]: 15 µM (≈ 54.5 µg/mL)
MIC [8]: 10 µM (≈ 36.3 µg/mL)
MIC [9]: 10 µM (≈ 36.3 µg/mL)
MIC [10]: 20 µM (≈ 72.7 µg/mL)
MIC [11]: 25 µM (≈ 90.8 µg/mL)
MIC [12]: 20 µM (≈ 72.7 µg/mL)
MIC [13]: 10 µM (≈ 36.3 µg/mL)
MIC [14]: 10 µM (≈ 36.3 µg/mL)
Structure (SMILES): CC[C@H](C)[C@H](NC(=O)[C@H](CCCN=C(N)N)NC(=O)[C@H](CCC(=O)O)NC(=O)[C@@H](NC(=O)[C@@H](NC(=O)[C@H](CCCN=C(N)N)NC(=O)[C@H](CCCCN)NC(=O)[C@H](Cc1ccccc1)NC(=O)[C@H](CCC(=O)O)NC(=O)[C@H](CCCCN)NC(=O)CNC(=O)[C@@H](NC(=O)[C@@H](NC(=O)[C@@H]1CCCN1C(=O)[C@H](CO)NC(=O)[C@H](CC(C)C)NC(=O)[C@H](CCCCN)NC(=O)[C@H](CCCCN)NC(=O)[C@H](Cc1ccccc1)NC(=O)[C@H](CC(C)C)NC(=O)[C@H](CCCCN)NC(=O)[C@H](CCCCN)NC(=O)[C@H](Cc1ccccc1)NC(=O)[C@@H](N)CCCCN)C(C)C)[C@@H](C)CC)[C@@H](C)CC)C(C)C)C(=O)N[C@@H](CCCCN)C(=O)N[C@@H](CCCN=C(N)N)C(=O)N[C@@H](Cc1ccccc1)C(=O)N[C@@H](CC(C)C)C(=O)N[C@@H](CCCN=C(N)N)C(=O)O [KFKKLFKKLSPVIGKEFKRIVERIKRFLR]

MIC [4]: 12.6 µM (≈ 34 µg/mL)
MIC [18]: 6.32 µM (≈ 17 µg/mL)
MIC [19]: 50.6 µM (≈ 136 µg/mL)
MIC [20]: 3.16 µM (≈ 8.5 µg/mL)
MIC [21]: 25.3 µM (≈ 68 µg/mL)
MIC [22]: 50.6 µM (≈ 136 µg/mL)
MIC [23]: ≥ 50.6 µM
MIC [12]: 3.16 µM (≈ 8.5 µg/mL)
Structure (SMILES): CC[C@H](C)[C@H](N)C(=O)N[C@@H](CCCCN)C(=O)N[C@@H](Cc1ccc(O)cc1)C(=O)N[C@@H](CC(C)C)C(=O)N[C@@H](CC(C)C)C(=O)N[C@H](C(=O)N[C@@H](CCCCN)C(=O)N[C@@H](CC(C)C)C(=O)N[C@@H](CCC(N)=O)C(=O)NCC(=O)N[C@@H](C)C(=O)N[C@@H](CO)C(=O)N[C@@H](CCC(N)=O)C(=O)N[C@@H](CCCCN)C(=O)N[C@H](C(=O)N[C@H](C(=O)N[C@H](C(=O)N[C@@H](CC(C)C)C(=O)N[C@@H](CCSC)C(=O)N[C@@H](CC(C)C)C(=O)N[C@@H](CCCN=C(N)N)C(=O)N[C@@H](CCCN=C(N)N)C(=O)N[C@@H](CC(N)=O)C(=O)O)[C@@H](C)O)[C@@H](C)CC)[C@@H](C)O)C(C)C [IKYLLVKLQGASQKTITLMLRRN]

MIC [1]: 7.21 µM (≈ 16 µg/mL)
MIC [4]: 1.8 µM (≈ 4 µg/mL)
MIC [5]: > 7.21 µM
MIC [24]: 0.225 µM (≈ 0.5 µg/mL)
MIC [6]: > 7.21 µM
MIC (Pseudomonas aeruginosa): > 7.21 µM
MIC [25]: 1.8 µM (≈ 4 µg/mL)
MIC [26]: 7.21 µM (≈ 16 µg/mL)
MIC [10]: > 7.21 µM
MIC [22]: 7.21 µM (≈ 16 µg/mL)
MIC (Klebsiella pneumoniae): > 7.21 µM
MIC (Acinetobacter baumannii): 7.21 µM (≈ 16 µg/mL)
MIC [27]: 7.21 µM (≈ 16 µg/mL)
Structure (SMILES): CC[C@H](C)[C@@H]1NC(=O)CNC(=O)[C@H](CCCN=C(N)N)NC(=O)[C@H](Cc2ccc(O)cc2)NC(=O)[C@@H](NC(=O)[C@@H](NC(=O)[C@H](CCCN=C(N)N)NC(=O)[C@H](Cc2ccccc2)NC(=O)[C@H](C)NC(=O)[C@H](Cc2c[nH]c3ccccc23)NC(=O)[C@@H](N)CCCCN)C(C)C)CSSC[C@@H](C(=O)N[C@@H](Cc2ccc(O)cc2)C(=O)N[C@@H](CCCN=C(N)N)C(=O)N[C@@H](CCCN=C(N)N)C(=O)N[C@@H](CO)C(=O)N[C@@H](CCCN=C(N)N)C(=O)O)NC1=O [KWAFRVCYRGICYRRSR]

From DBAASP
